Assay results from patent US20240150368A1, “ULK INHIBITORS AND METHODS OF USE THEREOF” (Deciphera Pharmaceuticals, LLC, priority 2022, published 2024).
Each block holds one compound with its values, some of them ahead of it.

What was measured:
ULK2 kinase = molecular target: T1, ULK2 kinase (Homo sapiens, UniProt Q8IYT8); assay: Biochemical assay for ULK2 (coupled pyruvate kinase/lactate dehydrogenase assay); conditions: 1 mM ATP, 1 nM ULK2; read-out: ULK2 (inhibition of biochemical activity), IC50
T1 construct: (residues 1-306 with N-terminal GST and His tag; ID NO: 2); purchased Signal Chem U02-11G
T1 sequence (Q8IYT8 with tags, fused parts or gaps): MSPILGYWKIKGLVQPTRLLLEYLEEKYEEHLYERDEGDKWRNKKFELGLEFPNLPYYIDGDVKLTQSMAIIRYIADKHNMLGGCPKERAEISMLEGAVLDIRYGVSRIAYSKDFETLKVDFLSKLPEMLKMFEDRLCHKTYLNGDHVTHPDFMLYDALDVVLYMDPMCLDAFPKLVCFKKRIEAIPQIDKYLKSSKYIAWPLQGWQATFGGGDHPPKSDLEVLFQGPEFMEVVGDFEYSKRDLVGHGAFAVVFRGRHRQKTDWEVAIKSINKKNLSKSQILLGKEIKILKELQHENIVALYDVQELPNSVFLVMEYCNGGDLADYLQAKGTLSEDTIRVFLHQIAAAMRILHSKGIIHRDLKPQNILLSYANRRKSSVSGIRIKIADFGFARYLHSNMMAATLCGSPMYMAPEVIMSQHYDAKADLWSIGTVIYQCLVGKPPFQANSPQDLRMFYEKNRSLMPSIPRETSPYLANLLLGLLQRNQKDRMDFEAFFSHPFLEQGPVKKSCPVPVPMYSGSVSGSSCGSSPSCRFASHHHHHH
Outline: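 Continuous PK/LDH-coupled NADH oxidation assay (A340) with 1 nM ULK2, 200 μM ULKtide and 1 mM ATP in Tris pH 7.5, 15 mM MgCl2, 1% DMSO, read 6 h at 30° C. Rates from the 2-3 h window converted to percent inhibition against no-compound and known-inhibitor controls; IC50 by four-parameter sigmoidal fit.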

ULK1 kinase = molecular target: T2, ULK1 kinase (Homo sapiens, UniProt O75385, E37A/K38A); assay: Biochemical assay for ULK1 (coupled pyruvate kinase/lactate dehydrogenase assay); conditions: 1 mM ATP, 0.1 nM ULK1; read-out: ULK1 (inhibition of biochemical activity), IC50
T2 construct: (residues 1-283; ID NO: 1); purchased Beryllium
T2 sequence (O75385 1-283 E37A/K38A): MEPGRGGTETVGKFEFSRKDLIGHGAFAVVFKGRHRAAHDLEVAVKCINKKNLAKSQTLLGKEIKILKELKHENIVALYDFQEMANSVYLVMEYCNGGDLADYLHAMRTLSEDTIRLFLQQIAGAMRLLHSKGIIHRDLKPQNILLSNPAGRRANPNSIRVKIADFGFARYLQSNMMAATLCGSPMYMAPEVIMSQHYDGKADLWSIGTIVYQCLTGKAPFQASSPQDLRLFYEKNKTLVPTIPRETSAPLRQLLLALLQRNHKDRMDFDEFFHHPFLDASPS
Outline: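 IC50 values were fitted to percent inhibition, normalised with no-compound and known-inhibitor controls, using rates from 2–3 h of a 6 h read at 30 °C. ADP was coupled through pyruvate kinase/lactate dehydrogenase to NADH loss at 340 nm.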

[1] = system: ULK kinase substrate ATG13 (pS318-ATG13) in A549 (KRAS mutant) cells; assay: pATG13 levels of mutant KRas A549 cells after treatment with ULK inhibitors in combination with trametinib (ELISA); type: cell-based, human
Outline: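 A549 cells grown overnight were treated with a test-compound dose response plus trametinib at 250 nM final (or DMSO) overnight at 37° C. Lysates were assayed by total-ATG13 capture and biotinylated pS318-ATG13 detection ELISA (450 nm minus 540 nm background); % phosphorylation versus controls gave IC50 values.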

Compound: CC/C(Nc1cnn(C2CCN(C(C)C)CC2)c1)=C1/C(=O)Nc2ccc(C(=O)NC[C@H]3CCCO3)cc21 [Example 1, (R,Z)-3-(1-((1-(1-isopropylpiperidin-4-yl)-1H-pyrazol-4-yl)amino)propylidene)-2-oxo-N-((tetrahydrofuran-2-yl)methyl)indoline-5-carboxamide]
IC50 (ULK2 kinase): 10 to 100 nM | IC50 (ULK1 kinase): ≤ 10 nM | IC50 [1]: 100 to 300 nM

Compound: CC/C(Nc1ccc(N2C[C@H]3CN(C)C[C@H]3C2)cc1)=C1/C(=O)Nc2ccc(C(=O)NCC(C)C)cc21 [Example 63]
IC50 (ULK2 kinase): 10 to 100 nM | IC50 (ULK1 kinase): 10 to 100 nM | IC50 [1]: ≤ 100 nM

Compound: CC/C(Nc1ccc(N2C[C@H]3CN(C)C[C@H]3C2)cc1)=C1/C(=O)Nc2ccc(C(=O)NC[C@H]3CCCO3)cc21 [Example 64]
IC50 (ULK2 kinase): 10 to 100 nM | IC50 (ULK1 kinase): 10 to 100 nM | IC50 [1]: ≤ 100 nM

Compound: CC/C(Nc1ccc(N2CC3(CN(C)C3)C2)cc1)=C1/C(=O)Nc2ccc(C(=O)NCC(C)C)cc21 [Example 65]
IC50 (ULK2 kinase): 10 to 100 nM | IC50 (ULK1 kinase): ≤ 10 nM | IC50 [1]: ≤ 100 nM

Compound: CC/C(Nc1ccc(N2CC3(CN(C)C3)C2)cc1)=C1/C(=O)Nc2ccc(C(=O)NC[C@H]3CCCO3)cc21 [Example 66]
IC50 (ULK2 kinase): 10 to 100 nM | IC50 (ULK1 kinase): ≤ 10 nM | IC50 [1]: ≤ 100 nM

Compound: CC/C(Nc1ccc(N2CC3CC(C2)N3C)cc1)=C1/C(=O)Nc2ccc(C(=O)NCC(C)C)cc21 [Example 67]
IC50 (ULK2 kinase): 10 to 100 nM | IC50 (ULK1 kinase): ≤ 10 nM | IC50 [1]: ≤ 100 nM

Compound: CC/C(Nc1ccc(N2CC3CC(C2)N3C)cc1)=C1/C(=O)Nc2ccc(C(=O)NC[C@H]3CCCO3)cc21 [Example 68]
IC50 (ULK2 kinase): 10 to 100 nM | IC50 (ULK1 kinase): ≤ 10 nM | IC50 [1]: ≤ 100 nM

Compound: CC/C(Nc1ccc(N2CC3CC2CN3C)cc1)=C1/C(=O)Nc2ccc(C(=O)NCC(C)C)cc21 (stereo not drawn) [Example 69]
IC50 (ULK2 kinase): 10 to 100 nM | IC50 (ULK1 kinase): ≤ 10 nM | IC50 [1]: ≤ 100 nM

Compound: CC/C(Nc1ccc(N2CC3CC2CN3C)cc1)=C1/C(=O)Nc2ccc(C(=O)NC[C@H]3CCCO3)cc21 (stereo partly drawn) [Example 70]
IC50 (ULK2 kinase): 10 to 100 nM | IC50 (ULK1 kinase): ≤ 10 nM | IC50 [1]: ≤ 100 nM

Compound: CC/C(Nc1ccc(N2CC3CC2CN3C)cc1)=C1/C(=O)Nc2ccc(C(=O)NCC(F)(F)F)cc21 (stereo not drawn) [Example 71]
IC50 (ULK2 kinase): 10 to 100 nM | IC50 (ULK1 kinase): ≤ 10 nM | IC50 [1]: ≤ 100 nM

Compound: CC/C(Nc1ccc(N2CCN(C)CC2)nc1)=C1/C(=O)Nc2ccc(C(=O)NCC(F)(F)F)cc21 [Example 74]
IC50 (ULK2 kinase): 100 to 500 nM | IC50 (ULK1 kinase): 10 to 100 nM | IC50 [1]: 100 to 300 nM

Compound: CC/C(Nc1ccc(N2CCN(C)CC2)cn1)=C1/C(=O)Nc2ccc(C(=O)NCC(F)(F)F)cc21 [Example 75]
IC50 (ULK2 kinase): ≤ 10 nM | IC50 (ULK1 kinase): ≤ 10 nM | IC50 [1]: 100 to 300 nM

Compound: CC/C(Nc1cnn(C)c1)=C1/C(=O)Nc2ccc(C(=O)NCC(F)(F)F)cc21 [Example 77]
IC50 (ULK2 kinase): 10 to 100 nM | IC50 (ULK1 kinase): ≤ 10 nM | IC50 [1]: 100 to 300 nM

Other lines, results leading:

IC50 (ULK2 kinase): 10 to 100 nM | IC50 (ULK1 kinase): 10 to 100 nM | IC50 [1]: 300 to 600 nM
Compound: CC/C(Nc1ccc(-c2nc(C)no2)cc1)=C1/C(=O)Nc2ccc(C(=O)NCC(F)(F)F)cc21 [Example 78]

IC50 (ULK2 kinase): 10 to 100 nM | IC50 (ULK1 kinase): 10 to 100 nM | IC50 [1]: 300 to 600 nM
Compound: CC/C(Nc1ccc(-c2cn(C)nn2)cc1)=C1/C(=O)Nc2ccc(C(=O)NCC(F)(F)F)cc21 [Example 79]

IC50 (ULK2 kinase): ≤ 10 nM | IC50 (ULK1 kinase): ≤ 10 nM | IC50 [1]: ≤ 100 nM
Compound: CC/C(Nc1cnn(C2CCN(C(C)C)CC2)c1)=C1/C(=O)Nc2ccc(C(=O)NC[C@H]3CC(F)(F)CO3)cc21 [Example 80]

IC50 (ULK2 kinase): ≤ 10 nM | IC50 (ULK1 kinase): ≤ 10 nM | IC50 [1]: 300 to 600 nM
Compound: CC/C(Nc1cnn(C2CCN(C(C)C)CC2)c1)=C1/C(=O)Nc2ccc(C(=O)NCCOC(F)(F)F)cc21 [Example 82]

IC50 (ULK2 kinase): 10 to 100 nM | IC50 (ULK1 kinase): ≤ 10 nM | IC50 [1]: ≤ 100 nM
Compound: CC/C(Nc1cnn(C2CCN(C(C)C)CC2)c1)=C1/C(=O)Nc2ccc(C(=O)NC[C@H]3CCCCO3)cc21 [Example 83]

IC50 (ULK2 kinase): ≤ 10 nM | IC50 (ULK1 kinase): ≤ 10 nM | IC50 [1]: > 600 nM
Compound: CC/C(Nc1cnn(C2CC3(C2)CN(C)C3)c1)=C1/C(=O)Nc2ccc(C(=O)NCC(F)(F)F)cc21 [Example 84]

IC50 (ULK2 kinase): 10 to 100 nM | IC50 (ULK1 kinase): 10 to 100 nM | IC50 [1]: 300 to 600 nM
Compound: CC/C(Nc1ccc(N2CC3(COC3)C2)cc1)=C1/C(=O)Nc2ccc(C(=O)NCC(F)(F)F)cc21 [Example 85]

IC50 (ULK2 kinase): 10 to 100 nM | IC50 (ULK1 kinase): ≤ 10 nM | IC50 [1]: 300 to 600 nM
Compound: CC/C(Nc1cnn(C2CN(C)C2)c1)=C1/C(=O)Nc2ccc(C(=O)NCC(F)(F)F)cc21 [Example 86]

IC50 (ULK2 kinase): 10 to 100 nM | IC50 (ULK1 kinase): 10 to 100 nM | IC50 [1]: 300 to 600 nM
Compound: CC/C(Nc1cnn(C2CN(C)C2)c1)=C1/C(=O)Nc2ccc(C(=O)NCC(C)C)cc21 [Example 87]

IC50 (ULK2 kinase): 10 to 100 nM | IC50 (ULK1 kinase): ≤ 10 nM | IC50 [1]: 100 to 300 nM
Compound: CC/C(Nc1cnn(C2CN(C3CCC3)C2)c1)=C1/C(=O)Nc2ccc(C(=O)NC[C@H]3CCCO3)cc21 [Example 88]

IC50 (ULK2 kinase): 100 to 500 nM | IC50 (ULK1 kinase): 10 to 100 nM | IC50 [1]: > 600 nM
Compound: CC/C(Nc1cnn(C2CN(C)C2)c1)=C1/C(=O)Nc2ccc(C(=O)NCCOC)cc21 [Example 89]

IC50 (ULK2 kinase): 10 to 100 nM | IC50 (ULK1 kinase): ≤ 10 nM | IC50 [1]: 300 to 600 nM
Compound: CC/C(Nc1cnn(C2CN(CC)C2)c1)=C1/C(=O)Nc2ccc(C(=O)NC[C@H]3CCCO3)cc21 [Example 90]

IC50 (ULK2 kinase): 10 to 100 nM | IC50 (ULK1 kinase): ≤ 10 nM | IC50 [1]: 100 to 300 nM
Compound: CC/C(Nc1cnn(C2CN(C(C)C)C2)c1)=C1/C(=O)Nc2ccc(C(=O)NC[C@H]3CCCO3)cc21 [Example 91]

IC50 (ULK2 kinase): 100 to 500 nM | IC50 (ULK1 kinase): 100 to 500 nM | IC50 [1]: ≤ 100 nM
Compound: CC/C(Nc1ccc(N2CCN(C(C)C)CC2)cn1)=C1/C(=O)Nc2cc(F)c(C(=O)NCC(F)(F)F)cc21 [Example 92]
